Results published in US7470668B2, “Method of use of specific natriuretic peptide receptor c ligands, transgenic non-human mammals expressing specific natriuretic peptide receptor c antagonists and cells thereof” (Enobia Pharma Inc., priority 2005, dated 2008).
Positions of bridges follow the written chain, without caps; N, C: chain ends. Residues, ends and D or L forms follow the SMILES beside them. No end group written: not given here.

How the values were obtained:
NPR-C [1] = molecular target: T1, NPR-C (Homo sapiens, UniProt P17342); experiment: ANP-stimulated cGMP in NPR-C overexpressing HEK293 cells; format: cell-based; settings: NPR-C overexpressing cells, 0.1 nM ANP[1-28] alone
T1 construct: expressed in transfected cells; host or cells: HEK293, transient, pCDNA1.1 (CMV promoter)
T1 sequence (P17342 27-541): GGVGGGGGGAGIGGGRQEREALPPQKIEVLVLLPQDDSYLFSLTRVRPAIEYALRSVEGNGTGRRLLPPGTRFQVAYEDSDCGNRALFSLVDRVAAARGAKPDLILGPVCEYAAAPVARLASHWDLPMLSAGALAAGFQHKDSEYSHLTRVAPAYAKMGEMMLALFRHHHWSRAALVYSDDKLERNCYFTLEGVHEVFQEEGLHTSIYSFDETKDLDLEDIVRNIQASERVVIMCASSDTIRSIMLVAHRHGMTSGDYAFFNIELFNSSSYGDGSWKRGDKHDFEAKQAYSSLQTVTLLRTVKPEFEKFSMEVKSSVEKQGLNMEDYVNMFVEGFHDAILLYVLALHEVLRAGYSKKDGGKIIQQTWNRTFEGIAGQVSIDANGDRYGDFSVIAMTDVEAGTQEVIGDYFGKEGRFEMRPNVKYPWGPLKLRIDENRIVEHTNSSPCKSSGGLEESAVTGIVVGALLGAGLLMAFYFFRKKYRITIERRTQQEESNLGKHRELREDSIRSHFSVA
Text: The expression plasmid for rat GC-A containing the entire coding sequence cloned between the NheI-KpnI sites of CMV-driven pBK plasmid (Stratagene, La Jolla, Calif.) was kindly provided by Dr. A. De Léan (Département de Pharmacologie, Université de Montréal). The human NPR-C and GC-B coding sequences were amplified by RT-PCR from human embryonic kidney polyA RNA (Clontech, Palo Alto, Calif.) with the following primer pairs: NPR-C-5′-[…]-3′(forward) (SEQ ID NO: 74) and 5′-[…]-3′ (SEQ ID NO: 75) (reverse); GC-B-5′-[…]-3′ (SEQ ID NO: 76) (forward) and 5′-[…]-3′ (SEQ ID NO: 77) (reverse). The resulting PCR products were then cloned downstream of the CMV-promoter into the pCDNA1.1 plasmid (Invitrogen, Burlington, ON, Canada). All constructs were validated by DNA sequencing.

[2] = system: primary rat osteoblastic cultures; settings: cited from earlier work
NPR-C [3] = molecular target: T2, NPR-C (Mus musculus, UniProt P70180); experiment: Competitive binding of 125I-Ostn[83-133] on ATDC5 cells
T2 construct: NPR-C was also found to be expressed in these cells; endogenous in cells; host or cells: ATDC5 (mouse chondrogenic cell line), intact cells
T2 sequence (P70180 41-536): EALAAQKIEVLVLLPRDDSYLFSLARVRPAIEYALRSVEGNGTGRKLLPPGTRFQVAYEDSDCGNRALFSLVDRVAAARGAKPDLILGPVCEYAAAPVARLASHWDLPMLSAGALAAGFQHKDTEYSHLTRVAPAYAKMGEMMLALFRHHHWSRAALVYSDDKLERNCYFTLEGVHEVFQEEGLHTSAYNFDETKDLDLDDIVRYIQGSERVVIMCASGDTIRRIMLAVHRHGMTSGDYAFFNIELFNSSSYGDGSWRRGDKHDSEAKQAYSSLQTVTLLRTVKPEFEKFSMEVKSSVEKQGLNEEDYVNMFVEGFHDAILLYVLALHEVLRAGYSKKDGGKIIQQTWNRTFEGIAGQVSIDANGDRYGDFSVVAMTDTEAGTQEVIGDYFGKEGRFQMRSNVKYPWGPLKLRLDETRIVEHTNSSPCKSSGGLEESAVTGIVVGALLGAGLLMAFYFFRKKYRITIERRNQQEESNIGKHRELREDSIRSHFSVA
Text: (§1) To gain further insight into the cellular basis of the interaction between CNP and Ostn in endochondral bone formation, ATDC5 cells were used. These cells are a mouse chondrogenic cell line derived from embryogenic carcinoma cells (Shukunami et al., 1996). […] In another study, NPR-C was also found to be expressed in these cells and the amount of transcripts decreased in association with the chondrogenic differentiation (Fujishige et al., 1999).
(§2) Cold and radio iodinated human Ostn[83-133] (SEQ ID NO: 41) were purchased from Phoenix Pharmaceutical co. (CA, USA). CNP was obtained from Sigma (St. Louis, USA) and rat C-ANF was purchased from Bachem (CA, USA). Cyclic GMP direct Biotrak™ EIA kit was obtained from Amersham Biosciences (Quebec, Canada) and DMEM/F-12 and PBS were obtained from Wisent (Quebec, Canada). Protease inhibitors were purchased from Roche (Quebec, Canada)
ATDC5 cells, grown in 24-well plates to 90% confluence, were washed twice with cold PBS and incubated with 500 μl of DMEM/F-F12 containing 0.1% BSA (wt/vol), protease inhibitor (40 μl/ml of medium), ^1251-Ostn[83-133] (0.05 μCi/well) and varying concentration of cold Ostn[83-133] (SEQ ID NO: 41) for 90 min at 4° C. After incubation, cells were washed twice with ice-cold PBS and solubilized with 0.5-ml of 0.5 M NaOH.
The radioactivity was measured with gamma-counter (Wallac).

[4] = system: foetal mouse tibial organ culture; settings: ex vivo foetal mouse tibia; cited from earlier work
ATDC5 cells = experiment: cGMP production in ATDC5 cells; format: cell-based, mouse; settings: for cGMP production by peptide alone: 0.1 μM
Text: as §1, with “1999). Therefore, ATDC5 cells are considered to be a good model to study the interaction between CNP and Ostn in vitro.” for “1999).”
as §2
Cells, grown in 24-well plates to 90% confluence, were washed twice with PBS and incubated in DMEM/F12 containing 1 mM IBMX, a protease inhibitor cocktail (40 ul/ml of medium), 0.1% BSA with or without C-ANF (0.1 μM) or Ostn[83-133] (0.1 μM) for 10 min at 37° C. prior to the addition of varying concentrations of CNP. They were then incubated for 15 min. After incubation, cells were washed twice with PBS and scraped in ice-cold ethanol (65%). The supernatant, obtained by centrifuging at 2000×g for 15 min at 4° C., was evaporated to dryness via speed vac. The amount of cGMP was measured with cGMP direct Biotrak™ EIA kit.

human GC-B = molecular target: T3, human GC-B (Homo sapiens, UniProt P20594); experiment: Intracellular cGMP in GC-B transfected HEK293 cells; format: cell-based; settings: 10 nM peptide, 15 min
T3 construct: expressed in transfected cells; host or cells: HEK293, transient, pCDNA1.1 (CMV promoter)
T3 sequence (P20594 23-1047): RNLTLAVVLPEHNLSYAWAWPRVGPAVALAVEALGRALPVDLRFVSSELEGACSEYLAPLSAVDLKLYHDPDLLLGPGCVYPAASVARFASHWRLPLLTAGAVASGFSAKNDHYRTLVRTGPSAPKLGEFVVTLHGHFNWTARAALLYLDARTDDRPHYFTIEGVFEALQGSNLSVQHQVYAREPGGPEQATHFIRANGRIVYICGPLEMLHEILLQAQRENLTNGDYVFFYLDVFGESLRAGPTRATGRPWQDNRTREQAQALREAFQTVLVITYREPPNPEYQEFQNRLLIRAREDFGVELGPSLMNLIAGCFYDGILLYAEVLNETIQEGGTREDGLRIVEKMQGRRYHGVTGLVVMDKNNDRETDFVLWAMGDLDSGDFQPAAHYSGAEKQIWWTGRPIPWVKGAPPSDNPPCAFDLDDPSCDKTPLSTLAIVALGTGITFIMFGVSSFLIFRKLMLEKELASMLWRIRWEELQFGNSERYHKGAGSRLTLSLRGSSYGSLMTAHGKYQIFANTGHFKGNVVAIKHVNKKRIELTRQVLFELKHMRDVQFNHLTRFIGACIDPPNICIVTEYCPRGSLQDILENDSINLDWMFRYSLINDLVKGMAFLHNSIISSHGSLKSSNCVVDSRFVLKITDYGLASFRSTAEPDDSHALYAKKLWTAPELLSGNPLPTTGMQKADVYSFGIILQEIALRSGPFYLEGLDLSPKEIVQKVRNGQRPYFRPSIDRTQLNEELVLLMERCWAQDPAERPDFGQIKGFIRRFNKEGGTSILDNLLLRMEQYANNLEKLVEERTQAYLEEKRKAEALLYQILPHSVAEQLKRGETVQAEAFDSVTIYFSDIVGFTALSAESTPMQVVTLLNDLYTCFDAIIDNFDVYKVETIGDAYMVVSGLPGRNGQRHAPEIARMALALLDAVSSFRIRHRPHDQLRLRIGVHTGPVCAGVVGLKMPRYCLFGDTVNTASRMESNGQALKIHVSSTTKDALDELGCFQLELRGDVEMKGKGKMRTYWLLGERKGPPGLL

Row | Compound | increase in cGMP levels upon ANP stimulation (NPR-C [1]) [fold] | effect on osteoblast differentiation [2] | effect on proliferation [2] | IC50 (NPR-C [3]) [nM] | maximal inhibition, less than that of cold Ostn[83-133] (NPR-C [3]; 1 μM) [%] | effect on bone length [4] | cGMP production by peptide alone (ATDC5 cells) | cGMP production (ATDC5 cells; varying concentrations of CNP, 15 min) | intracellular cGMP response via GC-B (human GC-B) | inhibition of bound 125I-Ostn[83-133] (NPR-C [3]; 1 μM cold peptide) | total binding (NPR-C [3]; ATDC5 cells, 24-well plates) [pmol/well]
1 | CC[C@H](C)[C@@H]1NC(=O)[C@H](CCCNC(=N)N)NC(=O)[C@H](CC(=O)O)NC(=O)[C@H](CCSC)NC(=O)[C@H](CCCNC(=N)N)NC(=O)CNC(=O)CNC(=O)[C@H](Cc2ccccc2)NC(=O)[C@@H](NC(=O)[C@H](CO)NC(=O)[C@H](CO)NC(=O)[C@H](CCCNC(=N)N)NC(=O)[C@H](CCCNC(=N)N)NC(=O)[C@H](CC(C)C)NC(=O)[C@@H](N)CO)CSSC[C@@H](C(=O)N[C@@H](CC(N)=O)C(=O)N[C@@H](CO)C(=O)N[C@@H](Cc2ccccc2)C(=O)N[C@@H](CCCNC(=N)N)C(=O)N[C@@H](Cc2ccc(O)cc2)C(=O)O)NC(=O)CNC(=O)[C@H](CC(C)C)NC(=O)CNC(=O)[C@H](CO)NC(=O)[C@H](CCC(N)=O)NC(=O)[C@H](C)NC(=O)CNC1=O [ANP] | 1.5 | stimulated osteoblast differentiation | inhibited proliferation |  |  |  |  |  |  |  | 
2 | CC[C@H](C)[C@@H]1NC(=O)[C@H](CCCNC(=N)N)NC(=O)[C@H](CC(=O)O)NC(=O)[C@H]([C@@H](C)CC)NC(=O)[C@H](CCCNC(=N)N)NC(=O)CNC(=O)CNC(=O)[C@H](Cc2ccccc2)NC(=O)[C@@H](NC(=O)[C@H](CO)NC(=O)[C@H](CO)NC(=O)[C@@H](N)CCCNC(=N)N)CSSC[C@@H](C(N)=O)NC(=O)[C@H](C)NC(=O)CNC1=O [C-ANF] (H-RSSCFGGRIDRIGAC-NH2; disulfide 4-15; N-terminus and C-terminus assumed) |  | no effect |  | 6.7 | 15 | no effect | only trace of cGMP production |  |  |  | 
3 | CNP: natriuretic peptide CNP (1-22) from Sigma; GC-B selective agonist |  | stimulated osteoblast differentiation | inhibited proliferation |  |  | significant increases in bone length |  | concentration-dependent cGMP production | greatest responses |  | 
4 | SFSGFGSPLDRLSAGSVDHKGKQRKVVDHPKRRFGIPMDRIGRNRLSNSRG [Ostn[83-133]] |  |  |  |  |  |  | only trace of cGMP production |  |  | More than 90% | 76.5
